Reference: patent US7312231B2, “Quinuclidine carbamate derivatives and their use as M3 antagonists” (priority 2000, dated 2007)

Molecular target: T1, human muscarinic M3 receptors (Homo sapiens, UniProt P20309)
T1 construct: expressed in transfected cells; host or cells: Chinese hamster ovary-K1 (CHO) cells, membrane preparations
Experiment: biochemical
Type: binding
Conditions: not given
Protocol: The binding of [^3H]-NMS to human muscarinic receptors was performed according to Waelbroek et al (1990), Mol. Pharmacol., 38:267–273. Assays were carried out at 25° C. Membrane preparations from stably transfected Chinese hamster ovary-K1 cells (CHO) expressing the genes for the human muscarinic M3 receptors were used.
For determination of IC50, membrane preparations were suspended in DPBS to a final concentration of 89 μg/ml for the M3 subtype. The membrane suspension wasincubated with the tritiated compound for 60 min. After incubation the membrane fraction was separated by filtration and the bound radioactivity determined. […] At least six concentrations were assayed in duplicate to generate individual displacement curves.

T1 sequence (P20309 whole entry): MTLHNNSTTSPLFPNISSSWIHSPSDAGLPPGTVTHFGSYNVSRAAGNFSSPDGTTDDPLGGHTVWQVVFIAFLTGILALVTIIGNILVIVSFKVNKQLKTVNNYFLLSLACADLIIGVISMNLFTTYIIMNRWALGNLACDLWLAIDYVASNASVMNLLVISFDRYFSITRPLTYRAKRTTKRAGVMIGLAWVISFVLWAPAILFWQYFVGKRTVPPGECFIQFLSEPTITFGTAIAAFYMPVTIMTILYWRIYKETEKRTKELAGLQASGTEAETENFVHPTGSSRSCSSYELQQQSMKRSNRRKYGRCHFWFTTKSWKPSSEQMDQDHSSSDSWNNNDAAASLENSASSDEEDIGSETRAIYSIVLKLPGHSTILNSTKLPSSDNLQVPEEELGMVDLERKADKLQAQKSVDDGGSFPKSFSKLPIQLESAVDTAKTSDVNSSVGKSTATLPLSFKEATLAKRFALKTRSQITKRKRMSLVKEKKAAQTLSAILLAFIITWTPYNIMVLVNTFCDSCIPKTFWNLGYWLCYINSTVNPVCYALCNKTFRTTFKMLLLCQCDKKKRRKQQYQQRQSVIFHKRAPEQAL

For CCCCCN(C(=O)O[C@H]1CN2CCC1CC2)c1ccccc1 [Example 104, Pentylphenylcarbamic acid 1-azabicyclo[2.2.2]oct-3-(R)yl ester], which IC50 is on record?
Its IC50 is 19 nM.

Same assay, conditions: [3H]-NMS displacement, membranes of CHO-K1 cells expressing human M3, 25° C., 60 min; read-out: BINDING TO RECPTOR M3 (IC50 nM)

Which IC50 does the source give for O=C(O[C@H]1CN2CCC1CC2)N(Cc1ccco1)c1ccccc1 [Example 153, Furan-2-ylmethylphenylcarbamic acid 1-azabicyclo[2.2.2]oct-3-(R)yl ester] here?
The IC50 was 6 nM.

Which IC50 does the source give for CCCCN(C(=O)O[C@H]1C[N+]2(CCOc3ccccc3)CCC1CC2)c1ccccc1 [Example 79, 3-(R)(Butylphenylcarbamoyloxy)-1-(2-phenoxyethyl)-1-azoniabicyclo[2.2.2]octane; bromide] here?
Its IC50 is 14 nM.

With O=C(O[C@H]1CN2CCC1CC2)N(Cc1ccccc1)c1ccccc1 [Example 1, Benzylphenylcarbamic acid 1-azabicyclo[2.2.2]oct-3-(R)yl ester] as the molecule, how does the IC50 read?
Its IC50 is 5 nM.

For O=C(O[C@H]1C[N+]2(CCCc3cccs3)CCC1CC2)N(Cc1cccs1)c1ccccc1 [Example 90, 3-(R)(phenylthiophen-2-ylmethylcarbamoyloxy)-1-(3-thiophen-2-ylpropyl)-1-azoniabicyclo[2.2.2]octane; bromide], which IC50 is on record?
Its IC50 is 9.2 nM.

Which IC50 does the source give for O=C(O[C@H]1C[N+]2(CCOc3ccccc3)CCC1CC2)N(Cc1cccs1)c1ccccc1 [Example 91, 1-(2-Phenoxyethyl)-3-(R)(phenylthiophen-2-ylmethylcarbamoyloxy)-1-azonia bicyclo[2.2.2]octane; bromide] here?
Its IC50 is 6.8 nM.

Which IC50 does the source give for “3-(R)(Phenylthiophen-3-ylmethylcarbamoyloxy)-1-(2-phenoxyethyl)-1-azonia bicyclo[2.2.2]octane; bromide [Example 136]” here?
Its IC50 is 9 nM.

For O=C(O[C@H]1C[N+]2(CC=Cc3ccccc3)CCC1CC2)N(Cc1ccccc1)c1ccccc1.[Br-] [Example 5, 3-(R)(Benzylphenylcarbamoyloxy)-1-(3-phenylallyl)-1-azoniabicyclo[2.2.2]octane; bromide], which IC50 is on record?
Its IC50 is 11.1 nM.

Which IC50 does the source give for O=C(O[C@H]1C[N+]2(CCCc3ccccc3)CCC1CC2)N(Cc1cccs1)Cc1cccs1 [Example 142, 3-(R)(bis-thiophen-2-ylmethylcarbamoyloxy)-1-(3-phenylpropyl)-1-azoniabicyclo [2.2.2]octane; bromide] here?
The IC50 was 17.8 nM.

Which IC50 does the source give for C=CC[N+]12CCC(CC1)[C@@H](OC(=O)N(Cc1ccccc1)c1ccccc1)C2.[Br-] [Example 6, 1-Allyl-3-(R)(benzylphenylcarbamoyloxy)-1-azoniabicyclo[2.2.2]octane; bromide] here?
The IC50 was 18 nM.

Which IC50 does the source give for O=C(O[C@H]1C[N+]2(CCCc3ccccc3)CCC1CC2)N(Cc1ccccc1)c1ccccc1.[Br-] [Example 31, 3-(R)(Benzylphenylcarbamoyloxy)-1-(3-phenylpropyl)-1-azoniabicyclo[2.2.2]octane; bromide] here?
The IC50 was 8 nM.

Which IC50 does the source give for CCCCN(C(=O)O[C@H]1C[N+]2(CC=Cc3ccccc3)CCC1CC2)c1ccccc1.[Br-] [Example 58, 3-(R)(Butylphenylcarbamoyloxy)-1-(3-phenylallyl)-1-azoniabicyclo[2.2.2]octane; bromide] here?
The IC50 was 8 nM.

Which IC50 does the source give for O=C(O[C@H]1CN2CCC1CC2)N(Cc1cccs1)c1ccccc1 [Example 82, Phenylthiophen-2-ylmethylcarbamic acid 1-azabicyclo[2.2.2]oct-3-(R)yl ester] here?
Its IC50 is 4.5 nM.

Which IC50 does the source give for “1-Allyl-3-(R)(phenylthiophen-2-ylmethylcarbamoyloxy)-1-azoniabicyclo [2.2.2]octane; bromide [Example 92]” here?
The IC50 was 11.5 nM.

Which IC50 does the source give for O=C(O[C@H]1CN2CCC1CC2)N(Cc1ccsc1)c1ccccc1 [Example 126, Phenylthiophen-3-ylmethylcarbamic acid 1-azabicyclo[2.2.2]oct-3-(R)yl ester] here?
Its IC50 is 8.6 nM.

For O=C(O[C@H]1C[N+]2(CCOc3ccccc3)CCC1CC2)N(Cc1ccccc1)c1ccccc1 [Example 32, 3-(R)(Benzylphenylcarbamoyloxy)-1-(2-phenoxyethyl)-1-azoniabicyclo[2.2.21 octane; bromide], which IC50 is on record?
The IC50 was 8 nM.

With O=C(O[C@H]1C[N+]2(CCCc3cccs3)CCC1CC2)N(Cc1cccs1)Cc1cccs1 [Example 146, 3-(R)(bis-thiophen-2-ylmethylcarbamoyloxy)-1-(3-thiophen-2-ylpropyl)-1-azonia bicyclo[2.2.2]octane; bromide] as the molecule, how does the IC50 read?
Its IC50 is 14.4 nM.

For O=C(O[C@H]1CN2CCC1CC2)N(Cc1ccco1)Cc1ccco1 [Example 156, bis-Furan-2-ylmethylcarbamic acid 1-azabicyclo[2.2.2]oct-3-(R)yl ester], which IC50 is on record?
The IC50 was 18 nM.

Test system: not given
Experiment: not given
Conditions: not given

Which melting point does the source give for CCCCN(C(=O)O[C@H]1C[N+]2(CCCc3ccccc3)CCC1CC2)c1ccccc1.[Br-] here?
The melting point was 120 °C.

With C=CC[N+]12CCC(CC1)[C@@H](OC(=O)N(CCCC)c1ccccc1)C2.[Br-] as the molecule, how does the melting point read?
Its melting point is 141 °C.

Which melting point does the source give for CCCCN(C(=O)O[C@H]1C[N+]2(CCc3ccccc3)CCC1CC2)c1ccccc1.[Br-] here?
The melting point was 139 °C.

Which melting point does the source give for O=C(O[C@H]1C[N+]2(CC=Cc3ccccc3)CCC1CC2)N(Cc1ccccc1)c1ccccc1.[Br-] [Example 5, 3-(R)(Benzylphenylcarbamoyloxy)-1-(3-phenylallyl)-1-azoniabicyclo[2.2.2]octane; bromide] here?
The melting point was 129 °C.

Which melting point does the source give for C=CC[N+]12CCC(CC1)[C@@H](OC(=O)N(Cc1ccccc1)c1ccccc1)C2.[Br-] [Example 6, 1-Allyl-3-(R)(benzylphenylcarbamoyloxy)-1-azoniabicyclo[2.2.2]octane; bromide] here?
The melting point was 70 °C.

For O=C(O[C@H]1C[N+]2(CCCc3ccccc3)CCC1CC2)N(Cc1ccccc1)c1ccccc1.[Br-] [Example 31, 3-(R)(Benzylphenylcarbamoyloxy)-1-(3-phenylpropyl)-1-azoniabicyclo[2.2.2]octane; bromide], which melting point is on record?
The melting point was 101 °C.

With O=C(O[C@@H]1C[N+]2(CCCc3ccccc3)CCC1CC2)N(Cc1ccccc1)c1ccccc1.[Br-] as the molecule, how does the melting point read?
Its melting point is 64 °C.

Which melting point does the source give for CCCCN(C(=O)O[C@H]1C[N+]2(CC=Cc3ccccc3)CCC1CC2)c1ccccc1.[Br-] [Example 58, 3-(R)(Butylphenylcarbamoyloxy)-1-(3-phenylallyl)-1-azoniabicyclo[2.2.2]octane; bromide] here?
The melting point was 144 °C.

With O=C(O[C@H]1C[N+]2(CCc3ccccc3)CCC1CC2)N(Cc1ccccc1)c1ccccc1.[Br-] as the molecule, how does the melting point read?
Its melting point is 81 °C.
